Key:
Rattus norvegicus [1] = species: Rattus norvegicus; assay: Biodistribution of [123I]-label in rat brain was reported at 0.33 hr post injection. Value shown is %ID/g of tissue; assay type: ADME, organism-based; conditions: in vivo
Rattus norvegicus [2] = species: Rattus norvegicus; assay: Biodistribution of [123I]-label in rat intestine was reported at 0.33 hr post injection. Value shown is %ID/g of tissue; assay type: ADME, organism-based; conditions: in vivo
Rattus norvegicus [3] = species: Rattus norvegicus; assay: Biodistribution of [123I]-label in rat blood was reported at 24 hr post injection. Value shown is %ID/g of tissue; assay type: ADME, organism-based; conditions: in vivo
Rattus norvegicus [4] = species: Rattus norvegicus; assay: Biodistribution of [123I]-label in rat thyroid was reported at 4 hr post injection. Value shown is %ID/organ; assay type: ADME, organism-based, Thyroid gland; conditions: in vivo
Rattus norvegicus [5] = species: Rattus norvegicus; assay: Biodistribution of [123I]-label in rat stomach was reported at 2 hr post injection. Value shown is %ID/g of tissue; assay type: ADME, organism-based; conditions: in vivo
Rattus norvegicus [6] = species: Rattus norvegicus; assay: Biodistribution of [123I]-label in rat intestine was reported at 4 hr post injection. Value shown is %ID/g of tissue; assay type: ADME, organism-based; conditions: in vivo
Rattus norvegicus [7] = species: Rattus norvegicus; assay: Biodistribution of [123I]-label in rat kidneys was reported at 24 hr post injection. Value shown is %ID/g of tissue; assay type: ADME, organism-based, Kidney; conditions: in vivo
Rattus norvegicus [8] = species: Rattus norvegicus; assay: Distribution of [123I]-label in rat brain (midbrain) was reported at 20 min post injection. Value shown is %ID/g of tissue; assay type: ADME, organism-based; conditions: in vivo
Rattus norvegicus [9] = species: Rattus norvegicus; assay: Biodistribution of [123I]-label in rat stomach was reported at 0.33 hr post injection. Value shown is %ID/g of tissue; assay type: ADME, organism-based; conditions: in vivo
Rattus norvegicus [10] = species: Rattus norvegicus; assay: Distribution of [123I]-label in rat brain (midbrain) was reported at 60 min post injection. Value shown is %ID/g of tissue; assay type: ADME, organism-based; conditions: in vivo, 1 h
Rattus norvegicus [11] = species: Rattus norvegicus; assay: Biodistribution of [123I]-label in rat kidneys was reported at 4 hr post injection. Value shown is %ID/g of tissue; assay type: ADME, organism-based, Kidney; conditions: in vivo
Rattus norvegicus [12] = species: Rattus norvegicus; assay: Distribution of [123I]-label in rat brain (posterior cortex) was reported at 60 min post injection. Value shown is %ID/g of tissue; assay type: ADME, organism-based; conditions: in vivo, 1 h
Rattus norvegicus [13] = species: Rattus norvegicus; assay: Biodistribution of [123I]-label in rat heart was reported at 2 hr post injection. Value shown is %ID/g of tissue; assay type: ADME, organism-based; conditions: in vivo
Rattus norvegicus [14] = species: Rattus norvegicus; assay: Biodistribution of [123I]-label in rat lung was reported at 1 hr post injection. Value shown is %ID/g of tissue; assay type: ADME, organism-based; conditions: in vivo
[15] = molecular target: Sigma non-opioid intracellular receptor 1 (Homo sapiens, UniProt Q99720); assay: 50% inhibitory dose against sigma receptor; assay type: functional
Rattus norvegicus [16] = species: Rattus norvegicus; assay: Biodistribution of [123I]-label in rat spleen was reported at 2 hr post injection. Value shown is %ID/g of tissue; assay type: ADME, organism-based; conditions: in vivo
Rattus norvegicus [17] = species: Rattus norvegicus; assay: Biodistribution of [123I]-label in rat muscle was reported at 1 hr post injection. Value shown is %ID/g of tissue; assay type: ADME, organism-based; conditions: in vivo
Rattus norvegicus [18] = species: Rattus norvegicus; assay: Biodistribution of [123I]-label in rat heart was reported at 24 hr post injection. Value shown is %ID/g of tissue; assay type: ADME, organism-based; conditions: in vivo
Rattus norvegicus [19] = species: Rattus norvegicus; assay: Biodistribution of [123I]-label in rat kidneys was reported at 2 hr post injection. Value shown is %ID/g of tissue; assay type: ADME, organism-based, Kidney; conditions: in vivo
Rattus norvegicus [20] = species: Rattus norvegicus; assay: Biodistribution of [123I]-label in rat spleen was reported at 1 hr post injection. Value shown is %ID/g of tissue; assay type: ADME, organism-based; conditions: in vivo
Rattus norvegicus [21] = species: Rattus norvegicus; assay: Distribution of [123I]-label in rat brain (diencephalon) was reported at 60 min post injection. Value shown is %ID/g of tissue; assay type: ADME, organism-based; conditions: in vivo, 1 h
Rattus norvegicus [22] = species: Rattus norvegicus; assay: Biodistribution of [123I]-label in rat thyroid was reported at 24 hr post injection. Value shown is %ID/organ; assay type: ADME, organism-based, Thyroid gland; conditions: in vivo
Rattus norvegicus [23] = species: Rattus norvegicus; assay: Biodistribution of [123I]-label in rat liver was reported at 2 hr post injection. Value shown is %ID/g of tissue; assay type: ADME, organism-based; conditions: in vivo
Rattus norvegicus [24] = species: Rattus norvegicus; assay: Distribution of [123I]-label in rat brain (frontal cortex) was reported at 20 min post injection. Value shown is %ID/g of tissue; assay type: ADME, organism-based; conditions: in vivo
Rattus norvegicus [25] = species: Rattus norvegicus; assay: Biodistribution of [123I]-label in rat brain was reported at 1 hr post injection. Value shown is %ID/organ; assay type: ADME, organism-based; conditions: in vivo
Rattus norvegicus [26] = species: Rattus norvegicus; assay: Biodistribution of [123I]-label in rat muscle was reported at 0.33 hr post injection. Value shown is %ID/g of tissue; assay type: ADME, organism-based; conditions: in vivo
Rattus norvegicus [27] = species: Rattus norvegicus; assay: Biodistribution of [123I]-label in rat intestine was reported at 24 hr post injection. Value shown is %ID/g of tissue; assay type: ADME, organism-based; conditions: in vivo
Rattus norvegicus [28] = species: Rattus norvegicus; assay: Biodistribution of [123I]-label in rat muscle was reported at 2 hr post injection. Value shown is %ID/g of tissue; assay type: ADME, organism-based; conditions: in vivo
Rattus norvegicus [29] = species: Rattus norvegicus; assay: Biodistribution of [123I]-label in rat kidneys was reported at 0.33 hr post injection. Value shown is %ID/g of tissue; assay type: ADME, organism-based, Kidney; conditions: in vivo
Rattus norvegicus [30] = species: Rattus norvegicus; assay: Biodistribution of [123I]-label in rat spleen was reported at 0.33 hr post injection. Value shown is %ID/g of tissue; assay type: ADME, organism-based; conditions: in vivo
Rattus norvegicus [31] = species: Rattus norvegicus; assay: Biodistribution of [123I]-label in rat intestine was reported at 2 hr post injection. Value shown is %ID/g of tissue; assay type: ADME, organism-based; conditions: in vivo
Rattus norvegicus [32] = species: Rattus norvegicus; assay: Biodistribution of [123I]-label in rat intestine was reported at 1 hr post injection. Value shown is %ID/g of tissue; assay type: ADME, organism-based; conditions: in vivo
Rattus norvegicus [33] = species: Rattus norvegicus; assay: Distribution of [123I]-label in rat brain (posterior cortex) was reported at 20 min post injection. Value shown is %ID/g of tissue; assay type: ADME, organism-based; conditions: in vivo
Rattus norvegicus [34] = species: Rattus norvegicus; assay: Biodistribution of [123I]-label in rat liver was reported at 1 hr post injection. Value shown is %ID/g of tissue; assay type: ADME, organism-based; conditions: in vivo
Rattus norvegicus [35] = species: Rattus norvegicus; assay: Biodistribution of [123I]-label in rat liver was reported at 0.33 hr post injection. Value shown is %ID/g of tissue; assay type: ADME, organism-based; conditions: in vivo
Rattus norvegicus [36] = species: Rattus norvegicus; assay: Distribution of [123I]-label in rat brain (striatum) was reported at 20 min post injection. Value shown is %ID/g of tissue; assay type: ADME, organism-based; conditions: in vivo
Rattus norvegicus [37] = species: Rattus norvegicus; assay: Biodistribution of [123I]-label in rat heart was reported at 0.33 hr post injection. Value shown is %ID/g of tissue; assay type: ADME, organism-based; conditions: in vivo
Rattus norvegicus [38] = species: Rattus norvegicus; assay: Distribution of [123I]-label in rat brain (cerebellum) was reported at 60 min post injection. Value shown is %ID/g of tissue; assay type: ADME, organism-based; conditions: in vivo, 1 h
Rattus norvegicus [39] = species: Rattus norvegicus; assay: Distribution of [123I]-label in rat brain (hippocampus) was reported at 60 min post injection. Value shown is %ID/g of tissue; assay type: ADME, organism-based; conditions: in vivo, 1 h
Rattus norvegicus [40] = species: Rattus norvegicus; assay: Biodistribution of [123I]-label in rat heart was reported at 1 hr post injection. Value shown is %ID/g of tissue; assay type: ADME, organism-based; conditions: in vivo
[41] = Partition coefficient (logP); assay type: physicochemical; conditions: octanol/water
Rattus norvegicus [42] = species: Rattus norvegicus; assay: Biodistribution of [123I]-label in rat blood was reported at 0.33 hr post injection. Value shown is %ID/g of tissue; assay type: ADME, organism-based; conditions: in vivo
Rattus norvegicus [43] = species: Rattus norvegicus; assay: Biodistribution of [123I]-label in rat brain was reported at 1 hr post injection. Value shown is %ID/g of tissue; assay type: ADME, organism-based; conditions: in vivo
Rattus norvegicus [44] = species: Rattus norvegicus; assay: Biodistribution of [123I]-label in rat stomach was reported at 4 hr post injection. Value shown is %ID/g of tissue; assay type: ADME, organism-based; conditions: in vivo
Rattus norvegicus [45] = species: Rattus norvegicus; assay: Biodistribution of [123I]-label in rat brain was reported at 2 hr post injection. Value shown is %ID/g of tissue; assay type: ADME, organism-based; conditions: in vivo
[46] = In Vitro binding affinity for 5-hydroxytryptamine 2 receptor

Chain of Sigma non-opioid intracellular receptor 1 (Q99720 whole entry): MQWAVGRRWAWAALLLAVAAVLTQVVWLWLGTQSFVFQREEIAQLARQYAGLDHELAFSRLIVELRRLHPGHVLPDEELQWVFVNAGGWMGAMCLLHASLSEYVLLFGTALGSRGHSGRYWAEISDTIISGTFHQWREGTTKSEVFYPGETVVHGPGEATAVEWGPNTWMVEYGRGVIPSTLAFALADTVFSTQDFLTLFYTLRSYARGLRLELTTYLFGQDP

ID/g (Rattus norvegicus [1]): 1.06%
ID/g (Rattus norvegicus [2]): 0.54%
ID/g (Rattus norvegicus [3]): 0.01%
ID (Rattus norvegicus [4]): 0.34%
ID/g (Rattus norvegicus [5]): 0.3%
ID/g (Rattus norvegicus [6]): 0.81%
ID/g (Rattus norvegicus [7]): 0.59%
ID/g (Rattus norvegicus [8]): 1.06%
ID/g (Rattus norvegicus [9]): 0.46%
ID/g (Rattus norvegicus [10]): 1.17%
ID/g (Rattus norvegicus [11]): 1.31%
ID/g (Rattus norvegicus [12]): 1.51%
ID/g (Rattus norvegicus [13]): 0.81%
ID/g (Rattus norvegicus [14]): 6.35%
ID50 [15]: 0.01 mg/kg
ID/g (Rattus norvegicus [16]): 0.89%
ID/g (Rattus norvegicus [17]): 0.29%
ID/g (Rattus norvegicus [18]): 0.18%
ID/g (Rattus norvegicus [19]): 1.3%
ID/g (Rattus norvegicus [20]): 0.92%
ID/g (Rattus norvegicus [21]): 1.18%
ID (Rattus norvegicus [22]): 1.19%
ID/g (Rattus norvegicus [23]): 0.43%
ID/g (Rattus norvegicus [24]): 1.28%
ID (Rattus norvegicus [25]): 1.96%
ID/g (Rattus norvegicus [26]): 0.23%
ID/g (Rattus norvegicus [27]): 0.74%
ID/g (Rattus norvegicus [28]): 0.22%
ID/g (Rattus norvegicus [29]): 1.64%
ID/g (Rattus norvegicus [30]): 0.91%
ID/g (Rattus norvegicus [31]): 0.84%
ID/g (Rattus norvegicus [32]): 0.82%
ID/g (Rattus norvegicus [33]): 1.43%
ID/g (Rattus norvegicus [34]): 0.45%
ID/g (Rattus norvegicus [35]): 0.33%
ID/g (Rattus norvegicus [36]): 1.17%
ID/g (Rattus norvegicus [37]): 1.25%
ID/g (Rattus norvegicus [38]): 1.09%
ID/g (Rattus norvegicus [39]): 1.06%
ID/g (Rattus norvegicus [40]): 1.21%
logP [41]: 3.36
ID/g (Rattus norvegicus [42]): 0.05%
ID/g (Rattus norvegicus [43]): 1.09%
ID/g (Rattus norvegicus [44]): 0.27%
ID/g (Rattus norvegicus [45]): 0.91%
Ki [46]: > 10 µM
Compound: N#Cc1ccc(OCC2CCN(C/C=C/I)CC2)cc1
